Measured values from US11415513B2, “Method for determining the degree of sensitivity of a strain of fungus to an antifungal agent” (UNIVERSITE GRENOBLE ALPES, priority 2015, dated 2022).
≈ marks a conversion by molar mass, not a printed value. Starred links: 1 amine or outer side, 2 acyl side, 3 side chain; linkers in the order of their positions; H or OH if unused. Positions of bridges follow the written chain, without caps; N, C: chain ends. Non-standard residues stand in square brackets, D forms with d. Residues, ends and D or L forms follow the SMILES beside them. *: point of attachment. hTyr(3S-OH,4S-OH,3'-OSO3H) = N[C@H](C(=O)O)[C@H](O)[C@@H](O)c1ccc(O)c(OS(=O)(=O)O)c1; Orn(4R-OH,5R-OH) = O=C([C@H](C[C@@H](O)[C@@H](O)N[*:3])N[*:1])[*:2]; Pro(3S-OH,4S-Me) = C[C@H]1CN[C@H](C(=O)O)[C@H]1O; X1 = CCCCCOc1ccc(-c2cc(-c3ccc(C(=O)*)cc3)no2)cc1; Gln(3R-OH) = NC(=O)C[C@@H](O)[C@H](N)C(=O)O; Hyp = O=C(O)[C@@H]1C[C@@H](O)CN1

Legend:
[1] = tested on: strain 8/21 of C. parapsilosis; assay: Etest method (MIC); assay type: cell-based, Candida parapsilosis; details: RPMI medium plates, 24 h at 35° C.; for MIC: Lodderomyces parapsilosis
Description: The Etest® method is a commercial test for determining the sensitivity of a strain, most frequently used routinely in clinical mycology laboratories.
The Etest® tests were performed according to the manufacturer's instructions. After distributing a standardised Mac Farland 0.5 inoculum (equivalent of […]) over plates of RPMI medium, said plates were incubated for 24 h at 35° C., with the exception of C. glabrata in which case the incubation was extended to 48 h so as to be able to determine the minimum inhibitory concentration (MIC).
The results of the MICs obtained were interpreted in accordance with the tables of the CLSI (Clinical and Laboratory Standards Institute) and/or of EUCAST (European Committee on Antimicrobial Susceptibility Testing) (Arendrup M C, Cuenca-Estrella M, Lass-Flörl C, Hope W W (2014) Breakpoints for antifungal agents: an update from EUCAST focussing on echinocandins against Candida spp and triazoles against Aspergillus spp. Drug Resist Updat 16(6):81-95. doi:10.1016/j.drup.2014.01.001) (cf. Table 2 taken from Maubon D, Garnaud C, Calandra T, et al. (2014) Resistance of Candida spp. to antifungal drugs in the ICU: where are we now? Intensive Care Med. doi: 10.1007/s00134-014-3404-7) which list the clinical thresholds (CBPs) for the most common species of yeast of the genus Candida as a function of different antifungal agents, or according to the table of epidemiological thresholds (ECVs).

[2] = tested on: strain ATCC®6258 of C. krusei; assay: Sensitivity test by HCA microscopy (chitin level, Calcofluor White; cell count); assay type: cell-based, Candida krusei
Description: (§1) The strains of Candida were incubated beforehand at 30° C. overnight in a yeast extract medium—peptone dextrose (YPD) (1% bacto peptone, 0.5% yeast extract, 2% glucose, 1.5% agar).
Yeast colonies were then removed from YPD medium plates and suspended in a 0.9% NaCl saline solution, in which the cell concentration was estimated by optical microscopy using Kova counting slides.
A dilution was performed to obtain 15 ml of an inoculum at 3×10^6 CFU/ml, in a synthetic complete (SC) medium at pH 7 (2% glucose, 0.5% ammonium sulfate, 0.17% nitrogen-containing yeast base, 0.2% synthetic complete mixture, and 10% HEPES 1.5M pH 7.2) for C. albicans, C. parapsilosis, C. tropicalis and C. krusei, and in a solution of RPMI 1640 pH 7.3 (10% HEPES 1M pH 7.2) for C. glabrata, so as to reduce the formation of septa and clusters.
1 ml of inoculum was then added to 2 ml of antifungal solution prepared in an SC or RPMI medium depending on the species of fungus, so as to obtain a final concentration of yeast of 10^6 CFU/ml and the desired concentration of antifungal agent according to table 1.
After homogenisation, the cultures were placed at 30° C. at 200 rpm, with the exception of cultures of C. glabrata, which were placed at 35° C. at 200 rpm, and incubated for a period of 6.5 h or 24 h.
After incubation, 100 μl of the culture of fungi obtained above were transferred in triplicate to 96-well plates, and 2.5 μl of Calcofluor White (CFW) were added to each well so as to mark the chitin of the cell walls of the yeasts.
(§2) A step of acquiring images by automated fluorescence microscopy (ScanR screening station, Olympus), using a 40× lens and a CFW filter, made it possible to obtain 30 images per well so as to capture enough cells to provide statistically significant data. These images were analysed by software (ScanR analysis software, Olympus). Firstly, the background noise was processed so as to improve the contrast between the fluorescence of the yeasts and background noise. A pixel threshold was then defined. Segmentation of the fluorescent elements present in each of the acquired images was then performed using an algorithm predefined in the software, making it possible to determine the limit of each element on the basis of the fluorescence intensity of said element. A size parameter was then applied to select the yeasts and eliminate the aggregates and the fluorescent debris.
Each element then corresponding to a yeast, it was thus possible, on the basis of these elements predefined beforehand, to define the fluorescence intensity for each of the yeasts, this intensity being directly correlated with the chitin content of their wall.
On the basis of said defined elements, it was also possible to automatically count the yeasts,
The strain ATCC®6258 of C. krusei was cultivated as described in paragraph I of the Examples section so as to obtain an inoculum at 3×10^6 CFU/ml in 15 ml of SC medium.
2 ml of fluconazole solution prepared in the SC medium were then added to 1 ml of this inoculum so as to obtain a final concentration of yeast of 10^6 CFU/ml and of 128 μg/ml in fluconazole. […]
The chitin level in the cell wall of the yeasts was then measured by […] analysis (HCA) microscopy, as described in paragraph II of the Examples section, in triplicate for each condition of concentration of fluconazole and without fluconazole. […]

[3] = tested on: strain TOP of C. albicans; assay: Sensitivity test by HCA microscopy (chitin level, Calcofluor White); assay type: cell-based, Candida albicans; details: 6.5 h at 30° C., SC medium
Description: as §1
Yeast colonies were then removed from YPD medium plates and suspended in a 0.9% NaCl saline solution, in which the cell concentration was estimated by optical microscopy using Kova counting slides. […]
as §2, with “A pixel threshold was then defined.” left out, “A size parameter was then applied to select the yeasts and eliminate the aggregates and the fluorescent debris.” left out
Each element then corresponding to a yeast, it was thus possible, on the basis of these elements predefined beforehand, to define the fluorescence intensity for each of the yeasts, this intensity being directly correlated with the chitin content of their wall. […]

| SMILES | MIC [1] [µg/mL] | phenotype by Etest MIC, interpretation by the EUCAST and CLSI tables [1] | phenotype of the strain with respect to the antifungal agent (HCA) ([2]; 6.5 h at 30° C., SC medium) | increase in the chitin level in the wall of the cells ([2]; vs cells in the absence of antifungal agent, 6.5 h at 30° C., SC medium, concentration gradient of Table 1) | phenotype of the strain with respect to the antifungal agent (HCA) [3] | increase in the chitin level in the wall of the cells ([3]; vs cells in the absence of antifungal agent, concentration gradient up to 1 μg/ml) | phenotype of the strain with respect to the antifungal agent (HCA) ([2]; 24 h at 30° C., RPMI medium) | decrease of the number of cells ([2]; vs cells in the absence of antifungal agent, 24 h at 30° C., RPMI medium) | increase of the chitin level in the wall of the cells ([2]; vs cells in the absence of antifungal agent, 24 h at 30° C., RPMI medium, concentration gradient of Table 1) |
| --- | --- | --- | --- | --- | --- | --- | --- | --- | --- |
| OC(Cn1cncn1)(Cn1cncn1)c1ccc(F)cc1F [fluconazole] | 8 (≈ 26.1 µM) | resistant | resistant (an increase in the chitin level having a value less than 10% or a decrease in the chitin level of less than 20% or an unchanged chitin level) | less than 10% |  |  |  |  |  |
| CCCCCOc1ccc(-c2cc(-c3ccc(C(=O)N[C@H]4C[C@@H](O)[C@@H](O)NC(=O)[C@@H]5[C@@H](O)[C@@H](C)CN5C(=O)[C@H]([C@H](O)CC(N)=O)NC(=O)[C@H]([C@H](O)[C@@H](O)c5ccc(O)c(OS(=O)(=O)O)c5)NC(=O)[C@@H]5C[C@@H](O)CN5C(=O)[C@H]([C@@H](C)O)NC4=O)cc3)no2)cc1 [micafungin] (X1-[Orn(4R-OH,5R-OH)]T[Hyp][hTyr(3S-OH,4S-OH,3'-OSO3H)][Gln(3R-OH)][Pro(3S-OH,4S-Me)]; lactam 1-C) |  |  |  |  | resistant (an increase in the chitin level having a value less than 10% or a decrease in the chitin level of less than 20% or an unchanged chitin level) | less than 10% |  |  |  |
| C[C@@H](c1ncncc1F)[C@](O)(Cn1cncn1)c1ccc(F)cc1F [voriconazole] | 4 (≈ 11.5 µM) | resistant |  |  |  |  | intermediate (an increase in the chitin level having a value of from 10% to a value less than 20%) | less than 0.3 log | greater than or equal to 20% |
